Read-outs that look alike come from different tables or passages of the source.
Legend:
[1] = tested on: Key Grass and Sedge Weeds as well as Grass Crops; test: Post-Emergent Test II: postemergent herbicidal activity, visual rating after 14 d (Table 8); assay type: in vivo; conditions: post-emergence, 336 h; for pest or weed control at 35 g/ha: 35 g ai/ha; for pest or weed control at 70 g/ha: 70 g ai/ha; for pest or weed control at 140 g/ha: 140 g ai/ha
How it was run: (§1)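 Scoring is visual, 0-100, at 14 d after application, comparing treated with untreated plants. Application: overhead track spray at 187 L/ha onto seedlings at 1-2 true leaves, in surfactant/crop-oil carrier.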

[2] = tested on: Key Broadleaf Weed and Crop Species; test: Post-Emergent Test II: postemergent herbicidal activity, visual rating after 14 d (Table 7); assay type: in vivo; conditions: post-emergence, 336 h; for pest or weed control at 35 g/ha: 35 g ai/ha; for pest or weed control at 70 g/ha: 70 g ai/ha; for pest or weed control at 140 g/ha: 140 g ai/ha
How it was run: as §1

[3] = barnyardgrass (Echinochloa crus-galli), read-out: Visual Growth Reduction (%) 14 Days After Application ECHCG
[4] = giant foxtail (Setaria faberi), read-out: Visual Growth Reduction (%) 14 Days After Application SETFA
[5] = maize, corn (Zea mays), read-out: Visual Growth Reduction (%) 14 Days After Application ZEAMX
[6] = rice (Oryza sativa), read-out: Visual Growth Reduction (%) 14 Days After Application ORYSA
[7] = wheat, spring (Triticum aestivum), read-out: Visual Growth Reduction (%) 14 Days After Application TRZAS
[8] = yellow nutsedge (Cyperus esculentus), read-out: Visual Growth Reduction (%) 14 Days After Application CYPES
[9] = lambsquarters (Chenopodium album), read-out: Visual Growth Reduction (%) 14 Days After Application CHEAL
[10] = oilseed rape, canola (Brassica napus), read-out: Visual Growth Reduction (%) 14 Days After Application BRSNN
[11] = redroot pigweed (Amaranthus retroflexus), read-out: Visual Growth Reduction (%) 14 Days After Application AMARE
[12] = sunflower (Helianthus annuus), read-out: Visual Growth Reduction (%) 14 Days After Application HELAN
[13] = velvetleaf (Abutilon theophrasti), read-out: Visual Growth Reduction (%) 14 Days After Application ABUTH
[14] = wild poinsettia (Euphorbia heterophylla), read-out: Visual Growth Reduction (%) 14 Days After Application EPHHL

SMILES | pest or weed control at 35 g/ha [1, 3] [%] | pest or weed control at 70 g/ha [1, 3] [%] | pest or weed control at 140 g/ha [1, 3] [%] | pest or weed control at 35 g/ha [1, 4] [%] | pest or weed control at 70 g/ha [1, 4] [%] | pest or weed control at 140 g/ha [1, 4] [%] | pest or weed control at 35 g/ha [1, 5] [%] | pest or weed control at 70 g/ha [1, 5] [%] | pest or weed control at 140 g/ha [1, 5] [%] | pest or weed control at 35 g/ha [1, 6] [%] | pest or weed control at 70 g/ha [1, 6] [%] | pest or weed control at 140 g/ha [1, 6] [%] | pest or weed control at 35 g/ha [1, 7] [%] | pest or weed control at 70 g/ha [1, 7] [%] | pest or weed control at 140 g/ha [1, 7] [%] | pest or weed control at 35 g/ha [1, 8] [%] | pest or weed control at 70 g/ha [1, 8] [%] | pest or weed control at 140 g/ha [1, 8] [%] | pest or weed control at 35 g/ha [2, 9] [%] | pest or weed control at 70 g/ha [2, 9] [%] | also measured
COC(=O)c1nc(-c2ccc3c(c2F)OC(F)(F)O3)nc(N)c1Cl [Compound 58] | 75 to 84 | 85 to 94 | 95 to 100 | 30 to 44 | 45 to 59 | 45 to 59 | 45 to 59 | 60 to 74 | 75 to 84 | 0 to 29 | 0 to 29 | 0 to 29 | 0 to 29 | 0 to 29 | 0 to 29 | 60 to 74 | 60 to 74 | 60 to 74 | 95 to 100 | 95 to 100 | pest or weed control at 140 g/ha [2, 9]: 95 to 100%; pest or weed control at 35 g/ha [2, 10]: 0 to 29%; pest or weed control at 70 g/ha [2, 10]: 0 to 29%; pest or weed control at 140 g/ha [2, 10]: 60 to 74%; pest or weed control at 35 g/ha [2, 11]: 0 to 29%; pest or weed control at 70 g/ha [2, 11]: 45 to 59%; pest or weed control at 140 g/ha [2, 11]: 95 to 100%; pest or weed control at 35 g/ha [2, 12]: 75 to 84%; pest or weed control at 70 g/ha [2, 12]: 75 to 84%; pest or weed control at 140 g/ha [2, 12]: 75 to 84%; pest or weed control at 35 g/ha [2, 13]: 0 to 29%; pest or weed control at 70 g/ha [2, 13]: 0 to 29%; pest or weed control at 140 g/ha [2, 13]: 75 to 84%; pest or weed control at 35 g/ha [2, 14]: 95 to 100%; pest or weed control at 70 g/ha [2, 14]: 95 to 100%; pest or weed control at 140 g/ha [2, 14]: 95 to 100%
COC(=O)c1nc(-c2cc3c(cc2F)OC(F)(F)O3)c(F)c(N)c1Cl [Compound 9] | 85 to 94 | 85 to 94 | 95 to 100 | 45 to 59 | 60 to 74 | 75 to 84 | 60 to 74 | 60 to 74 | 75 to 84 | 0 to 29 | 0 to 29 | 0 to 29 | 30 to 44 | 45 to 59 | 60 to 74 | 95 to 100 | 95 to 100 | 95 to 100 | 85 to 94 | 85 to 94 | pest or weed control at 140 g/ha [2, 9]: 85 to 94%; pest or weed control at 35 g/ha [2, 10]: 75 to 84%; pest or weed control at 70 g/ha [2, 10]: 85 to 94%; pest or weed control at 140 g/ha [2, 10]: 95 to 100%; pest or weed control at 35 g/ha [2, 11]: 0 to 29%; pest or weed control at 70 g/ha [2, 11]: 0 to 29%; pest or weed control at 140 g/ha [2, 11]: 0 to 29%; pest or weed control at 35 g/ha [2, 12]: 85 to 94%; pest or weed control at 70 g/ha [2, 12]: 85 to 94%; pest or weed control at 140 g/ha [2, 12]: 95 to 100%; pest or weed control at 35 g/ha [2, 13]: 75 to 84%; pest or weed control at 70 g/ha [2, 13]: 85 to 94%; pest or weed control at 140 g/ha [2, 13]: 95 to 100%; pest or weed control at 35 g/ha [2, 14]: 75 to 84%; pest or weed control at 70 g/ha [2, 14]: 85 to 94%; pest or weed control at 140 g/ha [2, 14]: 85 to 94%
COC(=O)c1nc(-c2ccc3c(c2OC)OC(F)(F)O3)cc(N)c1Cl [Compound 47] | 0 to 29 | 0 to 29 | 0 to 29 | 0 to 29 | 0 to 29 | 0 to 29 | 0 to 29 | 0 to 29 | 0 to 29 | 0 to 29 | 0 to 29 | 0 to 29 | 0 to 29 | 0 to 29 | 0 to 29 | 0 to 29 | 0 to 29 | 0 to 29 | 30 to 44 | 30 to 44 | pest or weed control at 140 g/ha [2, 9]: 45 to 59%; pest or weed control at 35 g/ha [2, 10]: 60 to 74%; pest or weed control at 70 g/ha [2, 10]: 60 to 74%; pest or weed control at 140 g/ha [2, 10]: 60 to 74%; pest or weed control at 35 g/ha [2, 11]: 0 to 29%; pest or weed control at 70 g/ha [2, 11]: 75 to 84%; pest or weed control at 140 g/ha [2, 11]: 85 to 94%; pest or weed control at 35 g/ha [2, 12]: 30 to 44%; pest or weed control at 70 g/ha [2, 12]: 30 to 44%; pest or weed control at 140 g/ha [2, 12]: 45 to 59%; pest or weed control at 35 g/ha [2, 13]: 0 to 29%; pest or weed control at 70 g/ha [2, 13]: 30 to 44%; pest or weed control at 140 g/ha [2, 13]: 60 to 74%; pest or weed control at 35 g/ha [2, 14]: 0 to 29%; pest or weed control at 70 g/ha [2, 14]: 0 to 29%; pest or weed control at 140 g/ha [2, 14]: 0 to 29%
COc1c(N)nc(-c2ccc3c(c2F)OC(F)(F)O3)nc1C(=O)O [Compound 66] | 95 to 100 | 95 to 100 | 95 to 100 | 75 to 84 | 75 to 84 | 85 to 94 | 60 to 74 | 60 to 74 | 75 to 84 | 30 to 44 | 30 to 44 | 30 to 44 | 45 to 59 | 60 to 74 | 60 to 74 | 0 to 29 | 95 to 100 | 95 to 100 | 45 to 59 | 85 to 94 | pest or weed control at 140 g/ha [2, 9]: 95 to 100%; pest or weed control at 35 g/ha [2, 10]: 60 to 74%; pest or weed control at 70 g/ha [2, 10]: 75 to 84%; pest or weed control at 140 g/ha [2, 10]: 85 to 94%; pest or weed control at 35 g/ha [2, 11]: 95 to 100%; pest or weed control at 70 g/ha [2, 11]: 95 to 100%; pest or weed control at 140 g/ha [2, 11]: 95 to 100%; pest or weed control at 35 g/ha [2, 12]: 75 to 84%; pest or weed control at 70 g/ha [2, 12]: 85 to 94%; pest or weed control at 140 g/ha [2, 12]: 95 to 100%; pest or weed control at 35 g/ha [2, 13]: 75 to 84%; pest or weed control at 70 g/ha [2, 13]: 75 to 84%; pest or weed control at 140 g/ha [2, 13]: 85 to 94%; pest or weed control at 35 g/ha [2, 14]: 95 to 100%; pest or weed control at 70 g/ha [2, 14]: 95 to 100%; pest or weed control at 140 g/ha [2, 14]: 95 to 100%

From patent US9149038B2, “4-amino-6-(heterocyclic)picolinates and 6-amino-2-(heterocyclic)pyrimidine-4-carboxylates and their use as herbicides” (Dow AgroSciences LLC, priority 2013, dated 2015)
